Here are results for 15 compounds from PMC8979340 (RSC Advances, 2022).

In series [1] the target is T1, human TGR5 (Homo sapiens, UniProt Q8TDU6).
T1 sequence (Q8TDU6 1-330): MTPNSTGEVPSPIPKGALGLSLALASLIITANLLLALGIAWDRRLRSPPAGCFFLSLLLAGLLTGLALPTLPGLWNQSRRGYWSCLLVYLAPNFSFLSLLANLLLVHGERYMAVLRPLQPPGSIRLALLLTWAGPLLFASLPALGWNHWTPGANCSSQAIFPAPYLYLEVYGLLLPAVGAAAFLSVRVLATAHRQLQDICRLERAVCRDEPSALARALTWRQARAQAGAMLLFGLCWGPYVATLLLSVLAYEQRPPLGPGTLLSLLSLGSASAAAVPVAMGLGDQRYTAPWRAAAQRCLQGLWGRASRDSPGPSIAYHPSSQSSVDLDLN
Briefly: cAMP HTRF TGR5 agonism assay in HEK293T cells expressing human TGR5. It counts as cell-based. The settings on record: for TGR5 agonistic activity (in words): hTGR5, cAMP HTRF. A general note: Time-resolved FRET reads energy transfer from a long-lived donor to a nearby acceptor.

In series [2] the test system is A549 cells. Briefly: CCK8 cytotoxicity assay in A549 cells. It counts as cell-based. The conditions noted are these: Homo sapiens, A549, read-out: IC50 A549. (Formazan colour is commonly taken as a measure of viable cells.)
In series [3] the target is T2, mouse TGR5 (Mus musculus, UniProt Q80SS6).
T2 sequence (Q80SS6 1-329): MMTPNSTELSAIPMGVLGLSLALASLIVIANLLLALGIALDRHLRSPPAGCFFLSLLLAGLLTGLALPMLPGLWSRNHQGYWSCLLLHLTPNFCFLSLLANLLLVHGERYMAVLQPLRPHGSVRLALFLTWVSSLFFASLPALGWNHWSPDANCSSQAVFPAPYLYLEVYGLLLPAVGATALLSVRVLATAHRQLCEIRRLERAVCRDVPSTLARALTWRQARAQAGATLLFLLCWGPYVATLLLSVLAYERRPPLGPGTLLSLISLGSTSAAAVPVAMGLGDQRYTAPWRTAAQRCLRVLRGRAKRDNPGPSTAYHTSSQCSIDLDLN
The series is described as follows: cAMP HTRF TGR5 agonism assay in HEK293T cells expressing mouse TGR5. It counts as cell-based.

In series [4] the test system is HeLa cells. Briefly: CCK8 cytotoxicity assay in HeLa cells. The series is classed as cell-based. The conditions noted are these: Homo sapiens, read-out: IC50 HeLa.
Series [5] relates to NCI-H716 cells. Briefly: In vitro GLP-1 secretion assay. The series is classed as cell-based, human. The conditions noted are these: 4 μM, 2 h.
Series [6] can be described thus: In vitro human plasma stability assay. It counts as in vitro ADME.
Series [7] deals with C57 BL/6 mice. Briefly: In vivo GLP-1 secretion. The conditions noted are these: 50 mg kg−1 oral, blood 4 h later.

A word on the EC50: it is the concentration at which the effect is half-maximal. Low readings indicate greater potency, high ones weaker potency. On to `O=C(C1Cc2ccccc2CN1Cc1ccc(Cl)cc1)N1CCN(C2CC2)c2ccccc21` (stereo not shown) [18a, (2-(4-Chlorobenzyl)-1,2,3,4-tetrahydroisoquinolin-3-yl)(4-cyclopropyl-3,4-dihydroquinoxalin-1(2H)-yl)methanone], for which, in series [1], the concentration giving a half-maximal response (EC50) was more than 30 µM and the “TGR5 agonistic activity (in words)” value is recorded as “no TGR5 agonistic activities”.

`O=C(c1cc2ccccc2n1Cc1ccc(Cl)cc1)N1CCN(C2CC2)c2ccccc21` [18b, (1-(4-Chlorobenzyl)-1H-indol-2-yl)(4-cyclopropyl-3,4-dihydroquinoxalin-1(2H)-yl)methanone]: in series [1], the EC50 is more than 30 µM and the “TGR5 agonistic activity (in words)” value is on record as “no TGR5 agonistic activities”.

For the compound `O=C(c1cc2sccc2n1Cc1ccc(Cl)cc1)N1CCN(C2CC2)c2ccccc21` [18c, (4-(4-Chlorobenzyl)-4H-thieno[3,2-b]pyrrol-5-yl)(4-cyclopropyl-3,4-dihydroquinoxalin-1(2H)-yl)methanone], in series [1], the EC50 was more than 30 µM and the “TGR5 agonistic activity (in words)” value was “no TGR5 agonistic activities”.

Consider `O=C(c1nccnc1Oc1ccc(Cl)cc1)N1CCN(C2CC2)c2ccccc21` [18d, (3-(4-Chlorophenoxy)pyrazin-2-yl)(4-cyclopropyl-3,4-dihydroquinoxalin-1(2H)-yl)methanone], for which the EC50 in series [1] is 1.5 µM.

`O=C(c1nccnc1Oc1ccc(F)cc1)N1CCN(C2CC2)c2ccccc21` [18e, (4-Cyclopropyl-3,4-dihydroquinoxalin-1(2H)-yl)(3-(4-fluorophenoxy)pyrazin-2-yl)methanone] gave an EC50 in series [1] of 0.442 µM.

For the compound `O=C(c1nccnc1Oc1ccccc1F)N1CCN(C2CC2)c2ccccc21` [18f, (4-Cyclopropyl-3,4-dihydroquinoxalin-1(2H)-yl)(3-(2-fluorophenoxy)pyrazin-2-yl)methanone], in series [1], the response was half-maximal at 0.0367 µM (EC50).

Broadly, the IC50 is the point on the concentration scale where inhibition reaches its midpoint. Turning to `O=C(c1nccnc1Oc1ccccc1Cl)N1CCN(C2CC2)c2ccccc21` [18g, (3-(2-Chlorophenoxy)pyrazin-2-yl)(4-cyclopropyl-3,4-dihydroquinoxalin-1(2H)-yl)methanone], the IC50 in series [2] and in series [4] was more than 50 µM each time. Further, the EC50 in series [3] is 0.12 µM; in series [1] it was 0.00144 µM.

With `COc1ccc(Oc2nccnc2C(=O)N2CCN(C3CC3)c3ccccc32)cc1` [18h, (4-Cyclopropyl-3,4-dihydroquinoxalin-1(2H)-yl)(3-(4-methoxyphenoxy)pyrazin-2-yl)methanone], a half-maximal response in series [1] (EC50) required 0.196 µM.

In the case of `Cc1ccc(Oc2nccnc2C(=O)N2CCN(C3CC3)c3ccccc32)cc1` [18i, (4-Cyclopropyl-3,4-dihydroquinoxalin-1(2H)-yl)(3-(p-tolyloxy)pyrazin-2-yl)methanone], the midpoint of the response in series [1], the EC50, lay at 0.0832 µM.

Turning to `O=C(c1nccnc1Oc1ccc(Cl)cc1Cl)N1CCN(C2CC2)c2ccccc21` [18j, (4-Cyclopropyl-3,4-dihydroquinoxalin-1(2H)-yl)(3-(2,4-dichlorophenoxy)pyrazin-2-yl)methanone], the IC50 in series [2] and in series [4] was more than 50 µM each time. Further, the EC50 in series [3] worked out at 0.538 µM; in series [1], 0.00989 µM.

As a reminder, the half-life is how long it takes for the measured level to halve. Higher therefore signals slow decline. Turning to `O=C(c1nccnc1Oc1cc(Cl)ccc1Cl)N1CCN(C2CC2)c2ccccc21` [18k, (4-Cyclopropyl-3,4-dihydroquinoxalin-1(2H)-yl)(3-(2,5-dichlorophenoxy)pyrazin-2-yl)methanone], the “GLP-1 secretion compared to control” value in series [5] was “increase the secretion of GLP-1”. The half-inhibitory concentration (IC50) in series [2] was more than 50 µM. In addition, the EC50 in series [3] stood at 0.267 µM. In series [6], the half-life was more than 4.82 h, the amount remaining at 0 h is 100%, the amount remaining at 0.5 h was determined as 104% and the fraction remaining at 1 h was determined as 102%. Moreover, the amount remaining at 2 h in series [6] is 85.4%. Besides, the EC50 in series [1] turned out to be 0.00058 µM. Also, in series [4], the IC50 was more than 50 µM. For the same compound, the “GLP-1 secretion compared to control” value in series [7] is “increase GLP-1 secretion”.

`O=C(c1nccnc1Oc1ccc(-c2ccccc2)cc1)N1CCN(C2CC2)c2ccccc21` [18l, (3-([1,1′-Biphenyl]-4-yloxy)pyrazin-2-yl)(4-cyclopropyl-3,4-dihydroquinoxalin-1(2H)-yl)methanone] gave an EC50 in series [1] of 0.895 µM.

With `O=C(c1nccnc1Oc1cc(Cl)ccc1Cl)N1CCN(c2ccccc2F)CC1` [18o, (3-(2,5-Dichlorophenoxy)pyrazin-2-yl)(4-(2-fluorophenyl)piperazin-1-yl)methanone], the EC50 in series [1] is more than 10 µM.

`CN(C(=O)c1nccnc1Oc1cc(Cl)ccc1Cl)c1ccc(F)cc1` [18r, 3-(2,5-Dichlorophenoxy)-N-(4-fluorophenyl)-N-methylpyrazine-2-carboxamide] gave an EC50 in series [1] of more than 10 µM.

As for `O=C(c1nccnc1Oc1cc(Cl)ccc1Cl)N1CCOc2ccccc21` [18u, (3-(2,5-Dichlorophenoxy)pyrazin-2-yl)(2,3-dihydro-4H-benzo[b][1,4]oxazin-4-yl)methanone], in series [1], the EC50 is more than 10 µM.
